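96-well plates; 48 h exposure; 5 concentrations. Endpoints by linear interpolation between flanking doses. Not reached: highest tested concentration assigned. Here, GI50 denotes the concentration required for 50% inhibition of growth.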 The source made the active and inactive calls. Cut-off read from the data, not from the text of the source: active = GI50 up to about 1.1 µM and inactive = higher.
Columns and labels:
Assay in all cases: NCI-60 cell line screen, 48 h
BT-549 = tested on: BT-549
SK-MEL-28 = tested on: SK-MEL-28
OVCAR-3 = tested on: OVCAR-3
A498 = tested on: A498
NCI-H226 = tested on: NCI-H226
OVCAR-8 = tested on: OVCAR-8
SK-MEL-5 = tested on: SK-MEL-5
UO-31 = tested on: UO-31
HCT-15 = tested on: HCT-15
HT-29 = tested on: HT-29
K562 = tested on: K562
Malme-3M = tested on: Malme-3M
UACC-257 = tested on: UACC-257
IGROV-1 = tested on: IGROV-1
SNB-75 = tested on: SNB-75
NCI-H522 = tested on: NCI-H522
UACC-62 = tested on: UACC-62
SF-539 = tested on: SF-539
HCT-116 = tested on: HCT-116
LOX IMVI = tested on: LOX IMVI
RXF 393 = tested on: RXF 393
Hs-578T = tested on: Hs-578T
HOP-92 = tested on: HOP-92
786-0 = tested on: 786-0
HOP-62 = tested on: HOP-62
PC-3 = tested on: PC-3
SN12C = tested on: SN12C
T47D = tested on: T47D
MOLT-4 = tested on: MOLT-4
A549 = tested on: A549
RPMI-8226 = tested on: RPMI-8226
MDA-MB-231 = tested on: MDA-MB-231
U-251 = tested on: U-251
DU-145 = tested on: DU-145
NCI-H23 = tested on: NCI-H23
NCI/ADR-RES = tested on: NCI/ADR-RES
KM12 = tested on: KM12
M14 = tested on: M14
SNB-19 = tested on: SNB-19
SF-268 = tested on: SF-268
MDA-N = tested on: MDA-N
SK-MEL-2 = tested on: SK-MEL-2
NCI-H460 = tested on: NCI-H460
CAKI-1 = tested on: CAKI-1
COLO 205 = tested on: COLO 205
ACHN = tested on: ACHN
OVCAR-5 = tested on: OVCAR-5
TK-10 = tested on: TK-10
SK-OV-3 = tested on: SK-OV-3
EKVX = tested on: EKVX
HL-60 = tested on: HL-60
SW-620 = tested on: SW-620
MDA-MB-435 = tested on: MDA-MB-435
SF-295 = tested on: SF-295
CCRF-CEM = tested on: CCRF-CEM
SR = tested on: SR
MCF7 = tested on: MCF7
HCC 2998 = tested on: HCC 2998
OVCAR-4 = tested on: OVCAR-4

## CC1=NNC(=O)C1C1C=C(c2c[nH]c3ccccc23)OC1=O (stereo unspecified)
BT-549
  GI50: > 100 µM (inactive)
SK-MEL-28
  GI50: > 100 µM (inactive)
OVCAR-3
  GI50: > 100 µM (inactive)
A498
  GI50: > 100 µM (inactive)
NCI-H226
  GI50: > 100 µM (inactive)
OVCAR-8
  GI50: > 100 µM (inactive)
SK-MEL-5
  GI50: > 100 µM (inactive)
UO-31
  GI50: > 100 µM (inactive)
HCT-15
  GI50: > 100 µM
HT-29
  GI50: > 100 µM (inactive)
K562
  GI50: 62.4 µM (inactive)
Malme-3M
  GI50: > 100 µM (inactive)
UACC-257
  GI50: > 100 µM (inactive)
IGROV-1
  GI50: 37 µM (inactive)
SNB-75
  GI50: > 100 µM (inactive)
NCI-H522
  GI50: > 100 µM (inactive)
UACC-62
  GI50: > 100 µM (inactive)
SF-539
  GI50: > 100 µM (inactive)
HCT-116
  GI50: > 100 µM (inactive)
LOX IMVI
  GI50: > 100 µM (inactive)
RXF 393
  GI50: > 100 µM (inactive)
Hs-578T
  GI50: > 100 µM (inactive)
HOP-92
  GI50: > 100 µM (inactive)
786-0
  GI50: > 100 µM (inactive)
HOP-62
  GI50: > 100 µM (inactive)
PC-3
  GI50: > 100 µM (inactive)
SN12C
  GI50: > 100 µM (inactive)
T47D
  GI50: > 100 µM (inactive)
MOLT-4
  GI50: > 100 µM (inactive)
A549
  GI50: > 100 µM (inactive)
RPMI-8226
  GI50: 39.8 µM (inactive)
MDA-MB-231
  GI50: > 100 µM (inactive)
U-251
  GI50: > 100 µM (inactive)
DU-145
  GI50: > 100 µM (inactive)
NCI-H23
  GI50: > 100 µM (inactive)
NCI/ADR-RES
  GI50: > 100 µM (inactive)
KM12
  GI50: 21.7 µM (inactive)
M14
  GI50: > 100 µM (inactive)
SNB-19
  GI50: > 100 µM (inactive)
SF-268
  GI50: > 100 µM (inactive)
MDA-N
  GI50: > 100 µM (inactive)
SK-MEL-2
  GI50: > 100 µM (inactive)
NCI-H460
  GI50: > 100 µM (inactive)
CAKI-1
  GI50: > 100 µM (inactive)
COLO 205
  GI50: > 100 µM (inactive)
ACHN
  GI50: > 100 µM (inactive)
OVCAR-5
  GI50: > 100 µM (inactive)
TK-10
  GI50: > 100 µM (inactive)
SK-OV-3
  GI50: > 100 µM (inactive)
EKVX
  GI50: > 100 µM (inactive)
HL-60
  GI50: > 100 µM (inactive)
SW-620
  GI50: > 100 µM (inactive)
MDA-MB-435
  GI50: > 100 µM (inactive)
SF-295
  GI50: > 100 µM (inactive)
CCRF-CEM
  GI50: 59.6 µM (inactive)

## Cc1cccc2c(=O)c3c(O)cc(O)cc3n(C)c12
BT-549
  GI50: > 100 µM (inactive)
SK-MEL-28
  GI50: > 100 µM (inactive)
OVCAR-3
  GI50: > 100 µM (inactive)
A498
  GI50: 7.29 µM (inactive)
NCI-H226
  GI50: > 100 µM (inactive)
OVCAR-8
  GI50: > 100 µM (inactive)
SK-MEL-5
  GI50: > 100 µM (inactive)
HCT-15
  GI50: > 100 µM
HT-29
  GI50: > 100 µM (inactive)
K562
  GI50: 63.5 µM (inactive)
Malme-3M
  GI50: > 100 µM (inactive)
UACC-257
  GI50: > 100 µM (inactive)
IGROV-1
  GI50: > 100 µM (inactive)
SNB-75
  GI50: 85.7 µM (inactive)
NCI-H522
  GI50: > 100 µM (inactive)
UACC-62
  GI50: > 100 µM (inactive)
SF-539
  GI50: > 100 µM (inactive)
HCT-116
  GI50: > 100 µM (inactive)
LOX IMVI
  GI50: > 100 µM (inactive)
RXF 393
  GI50: > 100 µM (inactive)
Hs-578T
  GI50: 6.37 µM (inactive)
HOP-92
  GI50: 91.4 µM (inactive)
786-0
  GI50: > 100 µM (inactive)
HOP-62
  GI50: > 100 µM (inactive)
PC-3
  GI50: > 100 µM (inactive)
SR
  GI50: > 100 µM (inactive)
SN12C
  GI50: > 100 µM (inactive)
MCF7
  GI50: > 100 µM (inactive)
MOLT-4
  GI50: > 100 µM (inactive)
A549
  GI50: > 100 µM (inactive)
RPMI-8226
  GI50: > 100 µM (inactive)
MDA-MB-231
  GI50: > 100 µM (inactive)
U-251
  GI50: > 100 µM (inactive)
DU-145
  GI50: > 100 µM (inactive)
NCI-H23
  GI50: > 100 µM (inactive)
NCI/ADR-RES
  GI50: > 100 µM (inactive)
KM12
  GI50: > 100 µM (inactive)
M14
  GI50: > 100 µM (inactive)
SNB-19
  GI50: > 100 µM (inactive)
SF-268
  GI50: > 100 µM (inactive)
MDA-N
  GI50: > 100 µM (inactive)
SK-MEL-2
  GI50: > 100 µM (inactive)
NCI-H460
  GI50: > 100 µM (inactive)
CAKI-1
  GI50: > 100 µM (inactive)
COLO 205
  GI50: > 100 µM (inactive)
ACHN
  GI50: > 100 µM (inactive)
OVCAR-5
  GI50: > 100 µM (inactive)
HCC 2998
  GI50: > 100 µM (inactive)
TK-10
  GI50: > 100 µM (inactive)
SK-OV-3
  GI50: > 100 µM (inactive)
OVCAR-4
  GI50: > 100 µM (inactive)
EKVX
  GI50: 7.41 µM (inactive)
HL-60
  GI50: > 100 µM (inactive)
SW-620
  GI50: > 100 µM (inactive)
MDA-MB-435
  GI50: > 100 µM (inactive)
SF-295
  GI50: > 100 µM (inactive)
CCRF-CEM
  GI50: > 100 µM (inactive)

## COc1ccc(C2CC(c3cc4c(C)c(C(=O)c5ccccc5)oc4cc3O)=Nc3ccccc3S2)cc1OC (stereo unspecified)
BT-549
  GI50: > 56.5 µM (inactive)
SK-MEL-28
  GI50: > 100 µM (inactive)
A498
  GI50: > 57.5 µM (inactive)
NCI-H226
  GI50: > 100 µM (inactive)
OVCAR-8
  GI50: > 100 µM (inactive)
SK-MEL-5
  GI50: > 56.5 µM (inactive)
UO-31
  GI50: > 100 µM (inactive)
HCT-15
  GI50: > 73.1 µM
HT-29
  GI50: > 100 µM (inactive)
K562
  GI50: > 72.9 µM (inactive)
Malme-3M
  GI50: 25.8 µM (inactive)
UACC-257
  GI50: > 100 µM (inactive)
IGROV-1
  GI50: 55.8 µM (inactive)
SNB-75
  GI50: 73.6 µM (inactive)
NCI-H522
  GI50: 19.1 µM (inactive)
UACC-62
  GI50: > 51.4 µM (inactive)
SF-539
  GI50: > 50 µM (inactive)
HCT-116
  GI50: > 90.4 µM (inactive)
LOX IMVI
  GI50: > 100 µM (inactive)
Hs-578T
  GI50: 25.8 µM (inactive)
HOP-92
  GI50: 20.3 µM (inactive)
786-0
  GI50: 47.6 µM (inactive)
PC-3
  GI50: > 100 µM (inactive)
SR
  GI50: 52.5 µM (inactive)
SN12C
  GI50: > 100 µM (inactive)
MCF7
  GI50: > 64 µM (inactive)
MOLT-4
  GI50: > 100 µM (inactive)
A549
  GI50: 96.8 µM (inactive)
RPMI-8226
  GI50: > 91.6 µM (inactive)
MDA-MB-231
  GI50: > 87.3 µM (inactive)
U-251
  GI50: > 65 µM (inactive)
NCI-H23
  GI50: 52.7 µM (inactive)
NCI/ADR-RES
  GI50: > 58.1 µM (inactive)
M14
  GI50: > 57.1 µM (inactive)
SNB-19
  GI50: 48.8 µM (inactive)
SF-268
  GI50: > 42.7 µM (inactive)
MDA-N
  GI50: > 40.2 µM (inactive)
SK-MEL-2
  GI50: > 59.2 µM (inactive)
NCI-H460
  GI50: > 100 µM (inactive)
COLO 205
  GI50: > 100 µM (inactive)
ACHN
  GI50: > 65.8 µM (inactive)
OVCAR-5
  GI50: > 100 µM (inactive)
HCC 2998
  GI50: > 100 µM (inactive)
TK-10
  GI50: > 77.1 µM (inactive)
EKVX
  GI50: 28.2 µM (inactive)
HL-60
  GI50: 9.82 µM (inactive)
SW-620
  GI50: > 84.7 µM (inactive)
MDA-MB-435
  GI50: 0.733 µM (active)
CCRF-CEM
  GI50: 70.8 µM (inactive)

From ChEMBL document CHEMBL1201862, “PubChem BioAssay data set” (2004)
